≈ marks a conversion by molar mass, not a printed value.
Key:
Assay type in all cases: functional
Haemophilus influenzae [1] = assay: Antibacterial activity against ROB-1 producing ICE- negative Haemophilus influenzae F3 by Etest method
Haemophilus influenzae [2] = assay: Antibacterial activity against ROB-1 producing ICE- negative Haemophilus influenzae F50 by Etest method
Haemophilus influenzae [3] = assay: Antibacterial activity against ROB-1 and TEM-1 producing ICE- positive Haemophilus influenzae F48 by Etest method
Haemophilus influenzae [4] = assay: Antibacterial activity against ROB-1 and TEM-1 producing ICE- positive Haemophilus influenzae F52 by Etest method
Haemophilus influenzae [5] = assay: Antibacterial activity against ROB-1 producing ICE- negative Haemophilus influenzae H23 by Etest method
Haemophilus influenzae [6] = assay: Antibacterial activity against ROB-1 producing ICE- negative Haemophilus influenzae H62 by Etest method
Haemophilus influenzae [7] = assay: Antibacterial activity against ROB-1 producing ICE- positive Haemophilus influenzae F45 harboring D350N, V547I and N569S mutations in PBP3 by Etest method
Haemophilus influenzae [8] = assay: Antibacterial activity against ROB-1 and TEM-1 producing ICE- positive Haemophilus influenzae F49 harboring D350N, V547I and N569S mutations in PBP3 by Etest method
Haemophilus influenzae [9] = assay: Antibacterial activity against ROB-1 and TEM-1 producing ICE- positive Haemophilus influenzae F54 harboring V489G, M503R, R517H, V547I and N569S mutations in PBP3 by Etest method
Haemophilus influenzae [10] = assay: Antibacterial activity against ROB-1 producing ICE- negative Haemophilus influenzae F41 by Etest method
Haemophilus influenzae [11] = assay: Antibacterial activity against ROB-1 and TEM-1 producing ICE- positive Haemophilus influenzae F47 by Etest method
Haemophilus influenzae [12] = assay: Antibacterial activity against […] by Etest method
Haemophilus influenzae [13] = assay: Antibacterial activity against ROB-1 producing ICE- negative Haemophilus influenzae Rd transformant harboring plasmid PB1000 by Etest method
Haemophilus influenzae [14] = assay: Antibacterial activity against ROB-1 producing ICE- negative Haemophilus influenzae F3 by broth microdilution method
Haemophilus influenzae [15] = assay: Antibacterial activity against ROB-1 producing ICE- negative Haemophilus influenzae F50 by broth microdilution method
Haemophilus influenzae [16] = assay: Antibacterial activity against ROB-1 producing ICE- positive Haemophilus influenzae F48 by broth microdilution method
Haemophilus influenzae [17] = assay: Antibacterial activity against ROB-1 producing ICE- positive Haemophilus influenzae F52 by broth microdilution method
Haemophilus influenzae [18] = assay: Antibacterial activity against ROB-1 producing ICE- negative Haemophilus influenzae H23 by broth microdilution method
Haemophilus influenzae [19] = assay: Antibacterial activity against ROB-1 producing ICE- negative Haemophilus influenzae H62 by broth microdilution method
Haemophilus influenzae [20] = assay: Antibacterial activity against ROB-1 producing ICE- positive Haemophilus influenzae F45 harboring D350N, V547I and N569S mutations in PBP3 by broth microdilution method
Haemophilus influenzae [21] = assay: Antibacterial activity against ROB-1 producing ICE- positive Haemophilus influenzae F49 harboring D350N, V547I and N569S mutations in PBP3 by broth microdilution method
Haemophilus influenzae [22] = assay: Antibacterial activity against ROB-1 producing ICE- positive Haemophilus influenzae F54 harboring V489G, M503R, R517H, V547I and N569S mutations in PBP3 by broth microdilution method
Haemophilus influenzae [23] = assay: Antibacterial activity against ROB-1 producing ICE- negative Haemophilus influenzae F41 by broth microdilution method
Haemophilus influenzae [24] = assay: Antibacterial activity against ROB-1 producing ICE- positive Haemophilus influenzae F47 by broth microdilution method
Haemophilus influenzae [25] = assay: Antibacterial activity against […] by broth microdilution method
Haemophilus influenzae [26] = assay: Antibacterial activity against ROB-1 producing ICE- negative Haemophilus influenzae Rd transformant harboring plasmid PB1000 by broth microdilution method

## N[C@@H](C(=O)N[C@@H]1C(=O)N2C(C(=O)O)=C(Cl)CS[C@H]12)c1ccccc1 [CEFACLOR ANHYDROUS]
Haemophilus influenzae [1]
  MIC: 4 µg/mL (≈ 10.9 µM)
Haemophilus influenzae [2]
  MIC: 2 µg/mL (≈ 5.44 µM)
Haemophilus influenzae [3]
  MIC: 6 µg/mL (≈ 16.3 µM)
Haemophilus influenzae [4]
  MIC: 6 µg/mL (≈ 16.3 µM)
Haemophilus influenzae [5]
  MIC: 2 µg/mL (≈ 5.44 µM)
Haemophilus influenzae [6]
  MIC: 6 µg/mL (≈ 16.3 µM)
Haemophilus influenzae [7]
  MIC: 24 µg/mL (≈ 65.3 µM)
Haemophilus influenzae [8]
  MIC: 16 µg/mL (≈ 43.5 µM)
Haemophilus influenzae [9]
  MIC: 32 µg/mL (≈ 87 µM)
Haemophilus influenzae [10]
  MIC: 4 µg/mL (≈ 10.9 µM)
Haemophilus influenzae [11]
  MIC: 4 µg/mL (≈ 10.9 µM)
Haemophilus influenzae [12]
  MIC: 0.5 µg/mL (≈ 1.36 µM)
Haemophilus influenzae [13]
  MIC: 4 µg/mL (≈ 10.9 µM)
Haemophilus influenzae [14]
  MIC: 16 µg/mL (≈ 43.5 µM)
Haemophilus influenzae [15]
  MIC: 16 µg/mL (≈ 43.5 µM)
Haemophilus influenzae [16]
  MIC: 16 µg/mL (≈ 43.5 µM)
Haemophilus influenzae [17]
  MIC: 16 µg/mL (≈ 43.5 µM)
Haemophilus influenzae [18]
  MIC: 16 µg/mL (≈ 43.5 µM)
Haemophilus influenzae [19]
  MIC: 32 µg/mL (≈ 87 µM)
Haemophilus influenzae [20]
  MIC: 64 µg/mL (≈ 174 µM)
Haemophilus influenzae [21]
  MIC: 64 µg/mL (≈ 174 µM)
Haemophilus influenzae [22]
  MIC: 64 µg/mL (≈ 174 µM)
Haemophilus influenzae [23]
  MIC: 32 µg/mL (≈ 87 µM)
Haemophilus influenzae [24]
  MIC: 32 µg/mL (≈ 87 µM)
Haemophilus influenzae [25]
  MIC: 1 µg/mL (≈ 2.72 µM)
Haemophilus influenzae [26]
  MIC: 32 µg/mL (≈ 87 µM)

From ChEMBL document CHEMBL1671749, “blaROB-1 presence on pB1000 in Haemophilus influenzae is widespread, and variable cefaclor resistance is associated with altered penicillin-binding proteins” (2010)
